Measured values taken from the NIST ThermoML archive (doi:10.1021/acs.jced.7b00694).
± gives the expanded uncertainty stated by the source.

Test: xn = mol fraction of the nth substance listed
Details: Gas, Buoyancy - hydrostatic balance with magnetic suspension - one sinker

[HH] [hydrogen] + N#N
Details | mass density [kg/m3]
250.04 K, 11001 kPa, x2 = 0.9 | 137.2 ± 0.074
250.04 K, 11002 kPa, x2 = 0.5001 | 76.353 ± 0.047
250.04 K, 12001 kPa, x2 = 0.5001 | 82.831 ± 0.048
250.04 K, 12002 kPa, x2 = 0.9 | 149.273 ± 0.074
250.04 K, 13003 kPa, x2 = 0.5001 | 89.231 ± 0.047
250.04 K, 13005 kPa, x2 = 0.9 | 161.179 ± 0.075
250.04 K, 14001 kPa, x2 = 0.5001 | 95.51 ± 0.048
250.04 K, 15005 kPa, x2 = 0.5001 | 101.724 ± 0.049
250.04 K, 15008 kPa, x2 = 0.9 | 184.307 ± 0.075
250.04 K, 16003 kPa, x2 = 0.5001 | 107.801 ± 0.048
250.04 K, 17004 kPa, x2 = 0.5001 | 113.79 ± 0.049
250.04 K, 17014 kPa, x2 = 0.9 | 206.478 ± 0.076
250.04 K, 18007 kPa, x2 = 0.5001 | 119.684 ± 0.05
250.04 K, 18011 kPa, x2 = 0.9 | 217.113 ± 0.076
250.04 K, 19005 kPa, x2 = 0.5001 | 125.441 ± 0.05
250.04 K, 19653 kPa, x2 = 0.9 | 234.021 ± 0.079
250.04 K, 19934 kPa, x2 = 0.5001 | 130.7 ± 0.05
250.05 K, 14008 kPa, x2 = 0.9 | 172.872 ± 0.075
250.05 K, 16004 kPa, x2 = 0.9 | 195.446 ± 0.075
250.05 K, 19014 kPa, x2 = 0.9 | 227.523 ± 0.076
260.02 K, 999 kPa, x2 = 0.95 | 12.396 ± 0.067
260.02 K, 1998 kPa, x2 = 0.95 | 24.915 ± 0.068
260.02 K, 2987 kPa, x2 = 0.95 | 37.39 ± 0.069
260.02 K, 3998 kPa, x2 = 0.95 | 50.206 ± 0.07
260.02 K, 4998 kPa, x2 = 0.95 | 62.921 ± 0.071
260.02 K, 5998 kPa, x2 = 0.95 | 75.652 ± 0.072
260.02 K, 6997 kPa, x2 = 0.95 | 88.348 ± 0.072
260.02 K, 8004 kPa, x2 = 0.95 | 101.083 ± 0.073
260.02 K, 8999 kPa, x2 = 0.95 | 113.598 ± 0.074
260.02 K, 10003 kPa, x2 = 0.95 | 126.121 ± 0.074
260.02 K, 11004 kPa, x2 = 0.95 | 138.476 ± 0.075
260.02 K, 12004 kPa, x2 = 0.95 | 150.65 ± 0.075
260.02 K, 13007 kPa, x2 = 0.95 | 162.68 ± 0.076
260.02 K, 13989 kPa, x2 = 0.95 | 174.256 ± 0.076
260.02 K, 15009 kPa, x2 = 0.95 | 186.058 ± 0.076
260.02 K, 16012 kPa, x2 = 0.95 | 197.415 ± 0.076
260.02 K, 17003 kPa, x2 = 0.95 | 208.387 ± 0.076
260.02 K, 18018 kPa, x2 = 0.95 | 219.361 ± 0.076
260.02 K, 19020 kPa, x2 = 0.95 | 229.93 ± 0.077
260.02 K, 19954 kPa, x2 = 0.95 | 239.529 ± 0.08
260.03 K, 998 kPa, x2 = 0.9 | 11.773 ± 0.064
260.03 K, 2000 kPa, x2 = 0.9 | 23.676 ± 0.065
260.04 K, 2987 kPa, x2 = 0.9 | 35.462 ± 0.066
260.04 K, 3998 kPa, x2 = 0.9 | 47.566 ± 0.067
260.04 K, 4998 kPa, x2 = 0.9 | 59.561 ± 0.068
260.04 K, 5998 kPa, x2 = 0.9 | 71.547 ± 0.068
260.04 K, 6999 kPa, x2 = 0.9 | 83.502 ± 0.069
260.04 K, 7999 kPa, x2 = 0.9 | 95.394 ± 0.069
260.04 K, 9000 kPa, x2 = 0.9 | 107.209 ± 0.07
260.04 K, 10001 kPa, x2 = 0.9 | 118.929 ± 0.071
260.04 K, 11002 kPa, x2 = 0.9 | 130.507 ± 0.071
260.04 K, 12001 kPa, x2 = 0.9 | 141.918 ± 0.071
260.04 K, 13005 kPa, x2 = 0.9 | 153.211 ± 0.072
260.04 K, 14004 kPa, x2 = 0.9 | 164.255 ± 0.072
260.04 K, 15004 kPa, x2 = 0.9 | 175.116 ± 0.072
260.04 K, 16007 kPa, x2 = 0.9 | 185.789 ± 0.072
260.04 K, 17014 kPa, x2 = 0.9 | 196.279 ± 0.073
260.04 K, 18009 kPa, x2 = 0.9 | 206.415 ± 0.073
260.04 K, 19010 kPa, x2 = 0.9 | 216.361 ± 0.074
260.04 K, 19736 kPa, x2 = 0.9 | 223.429 ± 0.077
274.98 K, 997 kPa, x2 = 0.9 | 11.103 ± 0.061
274.98 K, 1997 kPa, x2 = 0.9 | 22.285 ± 0.062
274.99 K, 997 kPa, x2 = 0.95 | 11.688 ± 0.064
274.99 K, 998 kPa, x2 = 0.5001 | 6.537 ± 0.04
274.99 K, 1998 kPa, x2 = 0.5001 | 13.041 ± 0.041
274.99 K, 1998 kPa, x2 = 0.95 | 23.478 ± 0.065
274.99 K, 2986 kPa, x2 = 0.95 | 35.164 ± 0.065
274.99 K, 2997 kPa, x2 = 0.9 | 33.49 ± 0.062
274.99 K, 2998 kPa, x2 = 0.5001 | 19.501 ± 0.041
274.99 K, 3997 kPa, x2 = 0.5001 | 25.901 ± 0.041
274.99 K, 3997 kPa, x2 = 0.9 | 44.699 ± 0.063
274.99 K, 3997 kPa, x2 = 0.95 | 47.147 ± 0.066
274.99 K, 4997 kPa, x2 = 0.5001 | 32.248 ± 0.042
274.99 K, 4997 kPa, x2 = 0.95 | 58.999 ± 0.067
274.99 K, 4998 kPa, x2 = 0.9 | 55.901 ± 0.064
274.99 K, 5997 kPa, x2 = 0.5001 | 38.535 ± 0.042
274.99 K, 5998 kPa, x2 = 0.9 | 67.065 ± 0.064
274.99 K, 5998 kPa, x2 = 0.95 | 70.84 ± 0.067
274.99 K, 6997 kPa, x2 = 0.5001 | 44.758 ± 0.042
274.99 K, 6998 kPa, x2 = 0.9 | 78.183 ± 0.065
274.99 K, 6998 kPa, x2 = 0.95 | 82.636 ± 0.068
274.99 K, 7997 kPa, x2 = 0.5001 | 50.911 ± 0.043
274.99 K, 7998 kPa, x2 = 0.9 | 89.232 ± 0.065
274.99 K, 8000 kPa, x2 = 0.95 | 94.385 ± 0.069
274.99 K, 8998 kPa, x2 = 0.5001 | 57.003 ± 0.043
274.99 K, 9000 kPa, x2 = 0.9 | 100.212 ± 0.066
274.99 K, 9000 kPa, x2 = 0.95 | 106.023 ± 0.069
274.99 K, 9998 kPa, x2 = 0.5001 | 63.009 ± 0.043
274.99 K, 9998 kPa, x2 = 0.9 | 111.047 ± 0.066
274.99 K, 10001 kPa, x2 = 0.95 | 117.586 ± 0.07
274.99 K, 10998 kPa, x2 = 0.5001 | 68.948 ± 0.044
274.99 K, 11001 kPa, x2 = 0.9 | 121.821 ± 0.067
274.99 K, 11002 kPa, x2 = 0.95 | 129.012 ± 0.07
274.99 K, 11996 kPa, x2 = 0.5001 | 74.789 ± 0.044
274.99 K, 12001 kPa, x2 = 0.9 | 132.405 ± 0.067
274.99 K, 12003 kPa, x2 = 0.95 | 140.289 ± 0.07
274.99 K, 13000 kPa, x2 = 0.5001 | 80.586 ± 0.044
274.99 K, 13002 kPa, x2 = 0.9 | 142.866 ± 0.067
274.99 K, 13002 kPa, x2 = 0.95 | 151.394 ± 0.071
274.99 K, 13998 kPa, x2 = 0.5001 | 86.267 ± 0.045
